Source: patent US20120107275A1, “FUSED HETEROCYCLIC DERIVATIVES AND METHODS OF USE” (Amgen Inc., priority 2006, published 2012)

Assays:
c-Met [1] = target: T1, c-Met (Homo sapiens, UniProt P08581); test: c-Met cell-based autophosphorylation assay, PC3 cells (HGF stimulated, IGEN readout); conditions: HGF 250 ng/mL
T1 construct: host or cells: PC3 (human)
Experimental: (§1) c-Met Cell-Based Autophosphorylation Assay
(§2) Human PC3 and mouse CT26 cells are available obtained from ATCC. […] 2×10^4 cells in medium were plated per well in a 96 well plate and incubated at 37° C. overnight. The cells were serum-starved by replacing the growth media with basic medium (DMEM low glucose+0.1 BSA, 120 μL per well) at 37° C. for 16 h. […] Compound samples (2.4 μL per well) were diluted with basic medium (240 μL) in a 96 well plate. […] The cells were incubated at 37° C. for 1 h. A (2 mg/mL) solution of CHO-HGF (7.5 μL) was diluted with 30 mL basic medium to provide a final concentration of 500 ng/mL. This HGF-containing media (120 μL) was transferred to a 96 well plate. Compounds (1.2 μL) was added to the HGF-containing media and mixed well.
(§3) BSA/0.1% Tween20) by rotating for 30 min at RT. Antibody beads (25 μL) were transferred to a 96 well plate. Cell lysate solution (25 μL) was transferred added and the plate was shaken at RT for 1 h. […] 1×PBS (175 μL) was added to each well and the electrochemiluminescence was read by an IGEN M8. Raw data was analyzed using a 4-parameter fit equation in XLFit. IC50 values are then determined using Grafit software.

c-Met [2] = target: T2, c-Met (Mus musculus, UniProt P16056); test: c-Met cell-based autophosphorylation assay, CT26 cells (HGF stimulated, IGEN readout); conditions: HGF 250 ng/mL
T2 construct: host or cells: CT26 (mouse)
T2 sequence (P16056 25-1379): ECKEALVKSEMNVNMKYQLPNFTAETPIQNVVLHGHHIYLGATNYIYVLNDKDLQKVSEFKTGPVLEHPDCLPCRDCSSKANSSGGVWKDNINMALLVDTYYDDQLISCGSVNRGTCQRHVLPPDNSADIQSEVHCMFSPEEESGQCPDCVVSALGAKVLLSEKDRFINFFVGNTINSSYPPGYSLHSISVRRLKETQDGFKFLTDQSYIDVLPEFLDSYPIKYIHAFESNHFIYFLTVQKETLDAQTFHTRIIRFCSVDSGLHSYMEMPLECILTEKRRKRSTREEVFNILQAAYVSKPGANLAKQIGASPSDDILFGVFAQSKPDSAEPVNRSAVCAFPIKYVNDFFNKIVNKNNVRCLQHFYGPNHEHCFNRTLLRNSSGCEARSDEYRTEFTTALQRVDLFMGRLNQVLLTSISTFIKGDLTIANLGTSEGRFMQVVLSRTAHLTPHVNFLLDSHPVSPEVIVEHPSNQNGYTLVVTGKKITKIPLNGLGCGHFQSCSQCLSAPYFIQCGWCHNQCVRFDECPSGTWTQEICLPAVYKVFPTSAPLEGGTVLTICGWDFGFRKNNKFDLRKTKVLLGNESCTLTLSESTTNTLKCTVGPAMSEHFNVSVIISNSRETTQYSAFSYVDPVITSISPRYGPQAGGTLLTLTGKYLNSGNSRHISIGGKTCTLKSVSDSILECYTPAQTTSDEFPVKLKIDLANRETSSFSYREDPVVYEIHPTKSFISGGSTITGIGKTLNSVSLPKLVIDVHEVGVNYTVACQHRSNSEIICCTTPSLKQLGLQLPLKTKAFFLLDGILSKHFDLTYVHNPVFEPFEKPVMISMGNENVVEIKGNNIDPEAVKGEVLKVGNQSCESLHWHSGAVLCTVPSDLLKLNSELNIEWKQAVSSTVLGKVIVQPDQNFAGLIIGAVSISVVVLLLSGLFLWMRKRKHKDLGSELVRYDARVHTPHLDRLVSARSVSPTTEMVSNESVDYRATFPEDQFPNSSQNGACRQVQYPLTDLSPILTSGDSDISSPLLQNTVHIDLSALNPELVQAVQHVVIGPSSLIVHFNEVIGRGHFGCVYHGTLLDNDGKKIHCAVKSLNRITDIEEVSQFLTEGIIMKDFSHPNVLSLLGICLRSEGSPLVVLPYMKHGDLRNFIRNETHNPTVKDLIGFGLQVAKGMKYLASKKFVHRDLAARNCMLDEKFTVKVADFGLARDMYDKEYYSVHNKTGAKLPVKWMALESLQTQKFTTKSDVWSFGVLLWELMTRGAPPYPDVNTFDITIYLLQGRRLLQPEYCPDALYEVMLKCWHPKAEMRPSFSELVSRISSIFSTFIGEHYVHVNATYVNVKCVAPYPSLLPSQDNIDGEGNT
Experimental: as §1, §2, §3

[3] = target: T3, c-Met kinase domain (GST-cMet) (Homo sapiens, UniProt P08581); test: c-Met receptor assay (HTRF kinase assay with GST-cMet (P) enzyme, gastrin and ATP); format: biochemical; conditions: for IC50: c-Met receptor assay; for Ki: illustrative activity values, HTRF kinase assay with GST-cMet (P) enzyme
T3 construct: A PCR product covering residues 1058-1365 of c-Met (c-Met kinase domain); made in house; host or cells: High5 insect cells (baculovirus, BacToBac)
T3 sequence (P08581 1058-1365): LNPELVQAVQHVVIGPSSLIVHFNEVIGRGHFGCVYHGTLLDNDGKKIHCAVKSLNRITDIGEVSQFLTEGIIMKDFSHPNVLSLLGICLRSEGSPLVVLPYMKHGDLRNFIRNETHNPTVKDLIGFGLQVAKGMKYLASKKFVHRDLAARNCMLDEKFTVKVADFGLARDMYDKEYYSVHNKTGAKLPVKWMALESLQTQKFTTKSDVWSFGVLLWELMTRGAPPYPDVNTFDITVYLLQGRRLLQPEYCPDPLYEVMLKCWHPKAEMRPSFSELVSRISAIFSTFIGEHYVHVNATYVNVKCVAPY
Experimental: Cloning, Expression and Purification of c-Met Kinase Domain
The PCR product is cloned into a modified pFastBac1 expression vector (harboring the gene for S. japonicum glutathione S-transferase immediately upstream of the multiple cloning site) using standard molecular biological techniques. The GST-c-Met kinase domain fusion (GST-Met) gene is transposed into full-length baculovirus DNA using the BacToBac™ system (Invitrogen). High5 cells are infected with the recombinant baculovirus for 72 h at 27° C. The infected cells are harvested by centrifugation and the pellet is stored at −80° C. The pellet is resuspended in buffer A (50 mM HEPES, pH 8.0, 0.25 M NaCl, 10 mM 2-mercaptoethanol, 10% (w/v) glycerol, 0.5% (v/v) protease inhibitor cocktail (Sigma P8340), stirred at 4° C. to homogeneity, and the cells are disrupted by microfluidization (Microfluidics) at 10,000 psi. The resulting lysate is centrifuged at 50,000×g for 90 min at 4° C., and the supernatant is adsorbed onto 10 mL of glutathione Sepharose™ 4B (Amersham) by batch method. The slurry is rocked gently overnight at 4° C. The glutathione resin is harvested by centrifugation and washed three times with 40 mL buffer A by batch method. The resin is washed three times with buffer B (buffer A adjusted to 0.1 M NaCl, less protease inhibitors). The protein is eluted with buffer B containing 25 mM reduced glutathione. Eluted fractions are analyzed by SDS-PAGE and concentrated to <10 mL (˜10 mg/mL total protein). The concentrated protein is separated by Superdex™ 200 (Amersham) size exclusion chromatography in buffer C (25 mM Tris, pH 7.5, 0.1 M NaCl, 10 mM 2-mercaptoethanol, 10% glycerol). The fractions are analyzed by SDS-PAGE and the appropriate fractions are pooled and concentrated to ˜1 mg/mL. The protein is aliquotted and stored at −80° C.
Alternative Purification of Human GST-cMET from Baculovirus Cells
The resin is washed with 10 column volumes (100 mL) of Lysis Buffer. […] The elution is collected as 15 mL fractions. Aliquots of the elution fractions are run on SDS PAGE (12% Tris Glycine gel, Invitrogen, #EC6005BOX). The gel is stained with 0.25% Coomassie Blue stain. Fractions with GST-cMET are concentrated with a Vivaspin 20 mL Concentrator (#VS2002; […]) to a final volume less than 2.0 ml. […] The GST-cMET is eluted with an isocratic run of the above buffer, with the eluent collected in 1.0 mL fractions. Fractions with significant OD280 readings are run on another 12% Tris Glycine gel. The peak tubes with GST-cMET are pooled and the OD280 is read with the column buffer listed above as the blank buffer.
Phosphorylation of the purified GST-cMET is performed by incubating the protein for 3 h at RT with the following:
After incubation, the solution is concentrated in a Vivaspin 20 ml Concentrator to a volume less than 2.00 ml. The solution is applied to the same Superdex 75 16/60 column used above after re-equilibration. The GST-cMET is eluted as described above. The elution fractions corresponding to the first eluted peak on the chromatogram are run on a 12% Tris Glycine gel, as above, to identify the fractions with GST-cMET. Fractions are pooled and the OD280 is read with the column buffer used as the blank.
A Kinase reaction Buffer is prepared as follows:
When the assay is carried out, freshly add:
The HTRF buffer contains:
1. […] 2. […] Then incubate the plate at RT for 30 min. 3.
Use Biomek FX to add 20 μl ATP and Gastrin working solution to the assay plate to start reaction, incubate the plate at RT for 1 h. 4.
KM ATP, KM gastrin for various enzymes were determined by HTRF/^33P labeling and HTRF methods.

T1 sequence (P08581 25-1390): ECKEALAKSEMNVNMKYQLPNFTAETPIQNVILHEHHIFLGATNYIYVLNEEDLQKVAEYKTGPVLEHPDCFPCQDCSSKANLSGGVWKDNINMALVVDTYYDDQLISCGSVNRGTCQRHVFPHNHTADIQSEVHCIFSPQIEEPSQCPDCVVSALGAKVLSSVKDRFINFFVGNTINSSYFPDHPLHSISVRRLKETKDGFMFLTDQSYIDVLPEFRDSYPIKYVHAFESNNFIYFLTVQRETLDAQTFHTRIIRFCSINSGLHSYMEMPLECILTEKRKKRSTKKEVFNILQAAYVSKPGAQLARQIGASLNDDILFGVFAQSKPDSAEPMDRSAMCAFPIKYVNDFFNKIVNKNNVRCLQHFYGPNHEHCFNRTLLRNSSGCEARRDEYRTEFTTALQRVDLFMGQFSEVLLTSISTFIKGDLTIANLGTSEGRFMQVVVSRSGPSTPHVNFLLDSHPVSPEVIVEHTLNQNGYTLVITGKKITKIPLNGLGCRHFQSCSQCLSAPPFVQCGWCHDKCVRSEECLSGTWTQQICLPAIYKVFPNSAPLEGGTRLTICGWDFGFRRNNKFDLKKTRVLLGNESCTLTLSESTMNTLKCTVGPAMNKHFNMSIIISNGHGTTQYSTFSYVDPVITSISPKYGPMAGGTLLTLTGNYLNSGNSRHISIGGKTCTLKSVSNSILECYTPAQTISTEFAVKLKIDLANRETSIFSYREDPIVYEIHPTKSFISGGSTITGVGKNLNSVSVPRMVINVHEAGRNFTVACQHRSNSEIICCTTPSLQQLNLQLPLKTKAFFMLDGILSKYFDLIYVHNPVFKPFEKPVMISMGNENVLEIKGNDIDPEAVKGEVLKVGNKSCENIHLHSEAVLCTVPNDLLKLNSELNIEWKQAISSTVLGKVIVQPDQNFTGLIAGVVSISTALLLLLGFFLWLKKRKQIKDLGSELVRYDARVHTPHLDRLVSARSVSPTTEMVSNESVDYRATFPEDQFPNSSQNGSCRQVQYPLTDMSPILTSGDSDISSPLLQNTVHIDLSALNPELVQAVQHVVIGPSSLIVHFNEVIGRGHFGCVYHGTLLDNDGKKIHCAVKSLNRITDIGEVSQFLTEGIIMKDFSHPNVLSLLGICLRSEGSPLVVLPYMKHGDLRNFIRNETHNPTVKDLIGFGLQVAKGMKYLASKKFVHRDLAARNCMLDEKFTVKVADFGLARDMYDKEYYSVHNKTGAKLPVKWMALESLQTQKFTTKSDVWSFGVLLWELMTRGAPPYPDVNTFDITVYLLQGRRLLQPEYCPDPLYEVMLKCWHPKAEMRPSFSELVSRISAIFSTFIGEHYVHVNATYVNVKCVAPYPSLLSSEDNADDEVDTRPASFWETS

| Structure (SMILES) | IC50 (c-Met [1]) | IC50 (c-Met [2]) | IC50 [3] | Ki [3] |
| --- | --- | --- | --- | --- |
| COc1cnc2c(NCc3nnc4ccc(-c5cc(C(=O)O)no5)nn34)ccnc2c1 [Example 36, 5-(3-((7-methoxy-1,5-naphthyridin-4-ylamino)methyl)-[1,2,4]triazolo[4,3-b]pyridazin-6-yl)isoxazole-3-carboxylic acid] | < 1000 nM | < 1000 nM | < 500 nM | – |
| COc1cnc2c(NCc3nnc4ccc(-c5cc(CO)no5)nn34)ccnc2c1 [Example 37, (5-(3-((7-methoxy-1,5-naphthyridin-4-ylamino)methyl)-[1,2,4]triazolo[4,3-b]pyridazin-6-yl)isoxazol-3-yl)methanol] | < 1000 nM | < 1000 nM | < 500 nM | – |
| COc1ccc2c(OCc3nnc4ccc(-c5ccc(N(C)C)nc5)nn34)ccnc2c1 [Example 43, 5-(3-((7-methoxyquinolin-4-yloxy)methyl)-[1,2,4]triazolo[4,3-b]pyridazin-6-yl)-N,N-dimethylpyridin-2-amine] | < 1000 nM | < 1000 nM | – | – |
| c1ccc(-c2ccc3nnc(Cc4ccc5c(c4)OCO5)n3n2)cc1 [Example 326] | – | – | – | 394 nM |
| Fc1cc(-c2ccccc2)cn2c(Cc3ccc4ncccc4c3)nnc12 [Example 437, 6-((8-fluoro-6-phenyl-[1,2,4]triazolo[4,3-a]pyridin-3-yl)methyl)quinoline] | – | – | – | 36.4 nM |

Second part, the molecule after the results:

| IC50 (c-Met [1]) | IC50 (c-Met [2]) | IC50 [3] | Ki [3] | Structure (SMILES) |
| --- | --- | --- | --- | --- |
| < 1000 nM | < 1000 nM | – | – | c1ccc(-c2ccc3nnc(COc4ccnc5ccccc45)n3n2)cc1 [Example 2, 4-((6-phenyl-[1,2,4]triazolo[4,3-b]pyridazin-3-yl)methoxy)quinoline] |
| – | – | < 500 nM | – | CNC(=O)c1ccc(-c2ccc3nnc(COc4ccnc5cc(OC)ccc45)n3n2)s1 [Example 30, 5-(3-((7-methoxyquinolin-4-yloxy)methyl)-[1,2,4]triazolo[4,3-b]pyridazin-6-yl)-N-methylthiophene-2-carboxamide] |
| – | – | – | 3.2 nM | C[C@H](c1nnc2c(F)cc(-c3cnn(CCO)c3)cn12)n1ccc2ncccc2c1=O [Example 509, (R)-6-(1-(8-fluoro-6-(1-(2-hydroxyethyl)-1H-pyrazol-4-yl)-[1,2,4]triazolo[4,3-a]pyridin-3-yl)ethyl)-1,6-naphthyridin-5(6H)-one] |
| – | – | – | 0.5 nM | Cc1csc(-c2cc(F)c3nnc([C@@H](C)n4ccc5ncccc5c4=O)n3c2)c1 [Example 511, (R)-6-(1-(8-fluoro-6-(4-methylthiophen-2-yl)-[1,2,4]-triazolo[4,3-a]pyridin-3-yl)ethyl)-1,6-naphthyridin-5(6H)-one] |
| – | – | – | 0.3 nM | Cc1cc(-c2cc(F)c3nnc([C@@H](C)n4ccc5ncc(-c6cnn(C)c6)cc5c4=O)n3c2)on1 [Example 527, 6-((R)-1-(8-fluoro-6-(3-methylisoxazol-5-yl)-[1,2,4]-triazolo[4,3-a]pyridin-3-yl)ethyl)-3-(1-methyl-1H-pyrazol-4-yl)-1,6-naphthyridin-5(6H)-one] |
